The values below come from ChEMBL document CHEMBL1129938, “Synthesis and biological evaluation of nonclassical 2,4-diamino-5-methylpyrido[2,3-d]pyrimidines with novel side chain substituents as potential inhibitors of dihydrofolate reductases” (J Med Chem, 1997).

Data set [1] deals with T1, Dihydrofolate reductase (Pneumocystis carinii, UniProt P16184).
T1 sequence (P16184 whole entry): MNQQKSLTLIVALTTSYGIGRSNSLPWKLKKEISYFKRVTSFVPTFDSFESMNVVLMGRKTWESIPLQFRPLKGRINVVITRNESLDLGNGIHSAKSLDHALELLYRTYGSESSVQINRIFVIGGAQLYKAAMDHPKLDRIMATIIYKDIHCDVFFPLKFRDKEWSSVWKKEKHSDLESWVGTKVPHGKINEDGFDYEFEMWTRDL
Description: Inhibition of Dihydrofolate Reductase of Pneumocystis carinii.

For data set [2], the target named is T2, Bifunctional dihydrofolate reductase-thymidylate synthase (Toxoplasma gondii, UniProt Q07422).
T2 sequence (Q07422 whole entry): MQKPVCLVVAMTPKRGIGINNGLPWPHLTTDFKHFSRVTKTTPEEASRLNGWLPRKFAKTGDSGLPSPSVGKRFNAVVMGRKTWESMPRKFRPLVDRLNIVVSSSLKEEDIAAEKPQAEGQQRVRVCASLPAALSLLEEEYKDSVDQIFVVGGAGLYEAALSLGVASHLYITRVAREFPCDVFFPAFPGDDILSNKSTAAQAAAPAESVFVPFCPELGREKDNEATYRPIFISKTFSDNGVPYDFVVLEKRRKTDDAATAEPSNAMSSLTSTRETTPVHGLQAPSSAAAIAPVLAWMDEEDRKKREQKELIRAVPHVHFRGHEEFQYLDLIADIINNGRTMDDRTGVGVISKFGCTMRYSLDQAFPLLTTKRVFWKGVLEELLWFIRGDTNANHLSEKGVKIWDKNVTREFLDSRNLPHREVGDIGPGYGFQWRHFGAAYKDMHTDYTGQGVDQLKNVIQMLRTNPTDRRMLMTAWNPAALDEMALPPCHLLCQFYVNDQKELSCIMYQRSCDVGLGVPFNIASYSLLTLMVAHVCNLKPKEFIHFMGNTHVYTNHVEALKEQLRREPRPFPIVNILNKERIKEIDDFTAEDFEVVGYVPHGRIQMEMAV
Description: Inhibition of Dihydrofolate Reductase of Toxoplasma gondii.

For data set [3], the target named is T3, Dihydrofolate reductase (Rattus norvegicus, UniProt Q920D2).
T3 sequence (Q920D2 whole entry): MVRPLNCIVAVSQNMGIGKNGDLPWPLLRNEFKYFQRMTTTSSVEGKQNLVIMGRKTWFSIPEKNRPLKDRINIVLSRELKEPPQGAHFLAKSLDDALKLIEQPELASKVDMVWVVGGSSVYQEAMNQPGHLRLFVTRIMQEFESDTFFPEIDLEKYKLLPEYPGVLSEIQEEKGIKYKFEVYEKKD
Description: Inhibition of Dihydrofolate Reductase of Rat Liver.

Data set [4] can be described thus: Partition coefficient (logP). Format: physicochemical. The conditions noted are these: octanol/water.
Data set [5] is described as follows: Selectivity ratio of Toxoplasma gondii cell culture to the T. gondii (tg) Dihydrofolate Reductase. The class given is functional.
For the next data set, the system named is CHO. The data set is described as follows: Cell culture inhibition was assessed by measuring incorporation of [3H]uracil into Toxoplasma gondii cells (CHO cell line). Format: functional, cell-based. The conditions noted are these: Cricetulus griseus.

In the case of `Cc1c(C)c(-n2cccc2)c(C)c(C)c1NCc1cnc2nc(N)nc(N)c2c1C`, the IC50 (usually the concentration that gives 50% inhibition) on Dihydrofolate reductase [1] was found to be 620 nM; in data set [2], 75 nM; on Dihydrofolate reductase [3], 170 nM.
In the case of `COc1ccc2c(c1)CCN2Cc1cnc2nc(N)nc(N)c2c1C`, the figures for the IC50 (on Dihydrofolate reductase [1]; in data set [2]; at Dihydrofolate reductase [3]) were 250 nM, 57 nM and 170 nM, respectively.
Consider `COc1cc2c(cc1OC)CN(Cc1cnc3nc(N)nc(N)c3c1C)CC2`, for which the figures for the IC50 (against Dihydrofolate reductase [1]; in data set [2]; against Dihydrofolate reductase [3]) were 850 nM, 110 nM and 130 nM, respectively.
On to `COc1cc(NCc2cnc3nc(N)nc(N)c3c2C)c(-n2cccc2)cc1OC`, for which the IC50 in data set [2] came out at 600 nM; at Dihydrofolate reductase [3], 3500 nM.
On to `COc1ccc(-c2ccccc2)cc1NCc1cnc2nc(N)nc(N)c2c1C`, for which the logP (usually a log measure of how a compound divides between an organic and an aqueous phase) in data set [4] came out at 4.77. For the same compound, the IC50 in data set [2] came out at 68 nM; on Dihydrofolate reductase [3], 440 nM.
`COc1ccc2c(ccn2Cc2cnc3nc(N)nc(N)c3c2C)c1` registered a logP in data set [4] of 3.07. Also, the IC50 on Dihydrofolate reductase [1] was 570 nM; in data set [2], 77 nM; in the data set with CHO, 1000 nM; at Dihydrofolate reductase [3], 470 nM. Besides, the Selectivity ratio in data set [5] is given as 13.
As to `COc1cccc2c1CCN2Cc1cnc2nc(N)nc(N)c2c1C`, the IC50 on Dihydrofolate reductase [1] was found to be 290 nM; in data set [2], 48 nM; at Dihydrofolate reductase [3] it was 150 nM.
`COc1cc2c(cc1OC)N(Cc1cnc3nc(N)nc(N)c3c1C)CC2` returned a logP in data set [4] of 2.33. For the same compound, the IC50 at Dihydrofolate reductase [1] was found to be 410 nM; in data set [2] it was 49 nM; in the data set with CHO it was 25100 nM; on Dihydrofolate reductase [3], 230 nM. In addition, the Selectivity ratio in data set [5] was 512.
Consider `COc1cc(-n2cccc2)c(OC)cc1NCc1cnc2nc(N)nc(N)c2c1C`, for which the values for the IC50 (against Dihydrofolate reductase [1]; in data set [2]; against Dihydrofolate reductase [3]) were 350 nM, 33 nM and 230 nM, respectively.
